According to patent publication US8808702B2, “Sulfide, sulfoxide and sulfone chalcone analogues, derivatives thereof and therapeutic uses thereof” (Temple University-of the Commonwealth System of Higher …, priority 2006, dated 2014):
Like-named read-outs stand apart in the source and are kept apart here.

Tests used:
[1] = tested on: K562 (chronic myelogenous leukaemia); assay: Effect of compounds on tumor cell lines (assay of Latham et al.), K562; assay type: cell-based; conditions: K562 cells, read-out: K 562 potency (IC50)
Outline: (§1)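 K562 or DU145 cells plated at 2.5×10^4 cells/well, treated 24 h later with compound in DMSO at 1 μM to 100 μM (0.1 μM to 100 μM for one compound). Activity judged by microscopic observation after 96 h; where needed, viable cells counted by trypan blue exclusion.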

[2] = tested on: DU145 (prostate cancer); assay: Effect of compounds on tumor cell lines (assay of Latham et al.), DU145; assay type: cell-based; conditions: DU145 cells, read-out: DU 145 potency (IC50)
Outline: as §1

[3] = 96 hours after treatment, 1 μM to 100 μM
[4] = Table 3, examined 96 hours after treatment, 1 μM to 100 μM in DMSO
[5] = Homo sapiens, Table 4, examined 96 hours after treatment, 1 μM to 100 μM in DMSO
[6] = Homo sapiens, DU-145, Table 4, examined 96 hours after treatment, 1 μM to 100 μM in DMSO
[7] = Table 4, examined 96 hours after treatment, 1 μM to 100 μM in DMSO

| SMILES | IC50 [1, 3] [µM] | IC50 [2, 3] [µM] | other results |
| --- | --- | --- | --- |
| O=C(/C(=C\c1ccc(F)c([N+](=O)[O-])c1)SCc1ccc(F)cc1)c1ccc(OCCCN2CCOCC2)cc1 [Example 340] | 1 to 10 | 1 to 10 | – |
| O=C(/C(=C\c1ccc(F)c([N+](=O)[O-])c1)SCc1ccc(F)cc1)c1ccc(F)cc1 [Example 341] | ≤ 1 | 1 to 10 | – |
| O=C(/C(=C\c1ccc(F)c([N+](=O)[O-])c1)SCc1ccc(F)cc1)c1ccc(O)cc1 [Example 342] | ≤ 1 | ≤ 1 | – |
| O=C(/C(=C\c1ccc(F)c([N+](=O)[O-])c1)SCc1ccc(F)cc1)c1ccccc1 [Example 344] | ≤ 1 | 1 to 10 | – |
| COc1ccc(CS/C(=C/c2ccc(F)cc2)C(=O)c2ccc(Cl)cc2)cc1 [Example 345] | 1 to 10 | 10 to 25 | – |
| COc1ccc(/C=C(/SCc2ccc(OC)cc2)C(=O)c2ccc(Cl)cc2)cc1 [Example 346] | 1 to 10 | 10 to 25 | – |
| Cc1ccc(CS/C(=C/c2ccc(F)c([N+](=O)[O-])c2)C(=O)c2ccc(Cl)c([N+](=O)[O-])c2)cc1 [Example 349] | ≤ 1 | 1 to 10 | – |
| O=C(O)c1ccc(C(=O)/C(=C\c2ccc(Cl)c([N+](=O)[O-])c2)SCc2ccc(C(F)(F)F)cc2)cc1 [Example 350] | 1 to 10 | 1 to 10 | – |
| O=C(O)c1ccc(C(=O)/C(=C\c2ccc(F)c([N+](=O)[O-])c2)SCc2ccc(C(F)(F)F)cc2)cc1 [Example 351] | ≤ 1 | 1 to 10 | – |
| O=C(O)c1ccc(C(=O)/C(=C\c2ccc(F)c([N+](=O)[O-])c2)SCc2nc3ccc(Br)cc3[nH]2)cc1 [Example 352] | 1 to 10 | 1 to 10 | – |
| O=C(O)c1ccc(C(=O)/C(=C\c2ccc(F)c([N+](=O)[O-])c2)SCc2ccccc2)cc1 [Example 353] | ≤ 1 | 1 to 10 | – |
| COc1cc(OC)c(/C=C(\C(=O)c2ccc(Cl)cc2)[S+]([O-])Cc2ccccc2Cl)c(OC)c1 (stereo not shown) [Example 354] | – | – | IC50 [1, 4]: 50 to 100 µM; IC50 [2, 4]: 10 to 25 µM |
| O=C(/C(=C\c1ccc(F)cc1C(F)(F)F)[S+]([O-])Cc1ccc(Cl)cc1)c1ccc(Cl)cc1 (stereo not shown) [Example 355] | – | – | IC50 [1, 4]: 50 to 100 µM; IC50 [2, 4]: 50 to 100 µM |
| O=C(/C(=C\c1cc(Br)c(O)c(Br)c1)S(=O)(=O)Cc1ccc(Br)cc1)c1ccc(Br)cc1 [Example 368] | – | – | IC50 [1, 5]: 25 to 50 µM; IC50 [2, 6]: 25 to 50 µM |
| O=C(/C(=C\c1cc(Cl)c(O)c(Cl)c1)S(=O)(=O)Cc1ccc(Br)cc1)c1ccc(Br)cc1 [Example 369] | – | – | IC50 [1, 5]: 25 to 50 µM; IC50 [2, 6]: 25 to 50 µM |
| CCN(CC)CCNC(=O)c1c(C)[nH]c(/C=C(\C(=O)c2ccc(Br)cc2)S(=O)(=O)Cc2ccc(Br)cc2)c1C [Example 370] | – | – | IC50 [1, 7]: 1 to 10 µM; IC50 [2, 7]: 1 to 10 µM |
| O=C(O)c1ccc(C(=O)/C(=C\c2ccc(Cl)c([N+](=O)[O-])c2)S(=O)(=O)Cc2ccc(Br)cc2)cc1 [Example 372] | – | – | IC50 [1, 5]: 25 to 50 µM; IC50 [2, 6]: 25 to 50 µM |

Continued, in another order:

| IC50 [1, 3] [µM] | IC50 [2, 3] [µM] | SMILES | other results |
| --- | --- | --- | --- |
| 10 to 25 | 10 to 25 | CN1CCN(CCNC(=O)c2ccc(C(=O)/C(=C\c3ccc(F)c([N+](=O)[O-])c3)SCc3ccc(F)cc3)cc2)CC1 [Example 337] | – |
| ≤ 1 | 1 to 10 | CCN(CC)CCOc1ccc(C(=O)/C(=C\c2ccc(F)c([N+](=O)[O-])c2)SCc2ccc(F)cc2)cc1 [Example 338] | – |
| 1 to 10 | 1 to 10 | CC1=CC(=O)C(C)=C(C(C)(C)CC(=O)Oc2ccc(C(=O)/C(=C\c3ccc(F)c([N+](=O)[O-])c3)SCc3ccc(F)cc3)cc2)C1=O [Example 339] | – |
| 1 to 10 | 1 to 10 | NS(=O)(=O)c1ccc(C(=O)/C(=C\c2ccc(F)c([N+](=O)[O-])c2)SCc2ccc(F)cc2)cc1 [Example 343] | – |
| ≤ 1 | 1 to 10 | Cc1ccc(CS/C(=C/c2ccc(F)c([N+](=O)[O-])c2)C(=O)c2ccc(C(=O)O)cc2)cc1 [Example 347] | – |
| 1 to 10 | 10 to 25 | Cc1ccc(CS/C(=C/c2ccc(F)c([N+](=O)[O-])c2)C(=O)c2ccc(C(=O)O)cc2)cc1 [Example 348] | – |
